pEC50, pIC50: −log10 of the molar value.

The target in data set [1] is T1, Glucocorticoid receptor (Homo sapiens, UniProt P04150).
T1 sequence (P04150 whole entry): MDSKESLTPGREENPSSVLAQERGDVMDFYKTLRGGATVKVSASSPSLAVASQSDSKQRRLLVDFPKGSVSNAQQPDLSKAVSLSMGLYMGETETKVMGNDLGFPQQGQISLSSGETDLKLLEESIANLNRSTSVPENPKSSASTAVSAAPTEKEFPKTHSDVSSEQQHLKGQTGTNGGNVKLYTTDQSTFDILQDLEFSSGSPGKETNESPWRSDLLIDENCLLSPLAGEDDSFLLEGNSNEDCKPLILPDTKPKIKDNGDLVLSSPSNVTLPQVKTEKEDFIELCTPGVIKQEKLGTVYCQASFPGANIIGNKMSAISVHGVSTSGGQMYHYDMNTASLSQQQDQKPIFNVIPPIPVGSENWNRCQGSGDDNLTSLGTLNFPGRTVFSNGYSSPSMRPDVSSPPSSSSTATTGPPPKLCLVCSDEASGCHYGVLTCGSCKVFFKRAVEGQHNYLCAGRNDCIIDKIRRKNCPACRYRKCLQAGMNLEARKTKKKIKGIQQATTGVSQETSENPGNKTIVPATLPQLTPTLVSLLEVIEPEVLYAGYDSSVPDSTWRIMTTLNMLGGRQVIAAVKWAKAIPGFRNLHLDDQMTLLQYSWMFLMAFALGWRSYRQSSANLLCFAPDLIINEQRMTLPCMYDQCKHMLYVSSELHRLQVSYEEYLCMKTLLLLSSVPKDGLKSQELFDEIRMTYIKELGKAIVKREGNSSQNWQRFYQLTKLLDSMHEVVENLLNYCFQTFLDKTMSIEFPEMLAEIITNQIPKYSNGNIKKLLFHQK
Put plainly: Transactivation of glucocorticoid receptor in human HeLa cells harboring MMTV promoter at 2 uM by luciferase reporter gene assay relative to dexamethasone. It is filed as cell-based. The settings on record: read-out: Efficacy. For orientation: Reporter assays use an easily measured gene product as a stand-in for the process of interest.

The target of another data set is T2, Progesterone receptor (Homo sapiens, UniProt P06401).
T2 sequence (P06401 whole entry): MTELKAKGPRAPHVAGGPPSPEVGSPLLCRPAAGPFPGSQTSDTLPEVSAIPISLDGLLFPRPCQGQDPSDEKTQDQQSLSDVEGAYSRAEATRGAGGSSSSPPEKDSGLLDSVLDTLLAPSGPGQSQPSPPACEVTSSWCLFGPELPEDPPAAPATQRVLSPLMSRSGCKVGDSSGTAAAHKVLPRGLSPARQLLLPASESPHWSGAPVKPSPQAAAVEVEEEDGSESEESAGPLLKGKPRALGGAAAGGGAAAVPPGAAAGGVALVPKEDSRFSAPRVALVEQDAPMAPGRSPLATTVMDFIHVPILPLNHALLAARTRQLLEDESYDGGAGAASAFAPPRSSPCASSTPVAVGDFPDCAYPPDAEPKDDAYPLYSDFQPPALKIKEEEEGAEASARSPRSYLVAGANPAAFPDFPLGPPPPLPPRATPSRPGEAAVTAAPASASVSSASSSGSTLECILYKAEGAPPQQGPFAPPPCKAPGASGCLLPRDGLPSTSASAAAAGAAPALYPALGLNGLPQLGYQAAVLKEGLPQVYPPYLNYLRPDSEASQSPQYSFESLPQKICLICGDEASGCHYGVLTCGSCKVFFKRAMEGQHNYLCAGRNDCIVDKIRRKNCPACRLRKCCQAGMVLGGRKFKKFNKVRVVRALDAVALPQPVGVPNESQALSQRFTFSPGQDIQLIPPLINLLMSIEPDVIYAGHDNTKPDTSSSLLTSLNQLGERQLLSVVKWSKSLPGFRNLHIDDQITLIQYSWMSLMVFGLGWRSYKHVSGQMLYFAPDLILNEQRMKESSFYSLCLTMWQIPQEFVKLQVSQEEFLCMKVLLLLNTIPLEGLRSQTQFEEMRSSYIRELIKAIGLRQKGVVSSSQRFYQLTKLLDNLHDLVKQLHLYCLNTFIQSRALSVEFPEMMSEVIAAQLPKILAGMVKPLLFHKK
The experiment in a line: Displacement of TAMRA-labeled mifepristone from progesterone receptor (unknown origin) by fluorescence polarization assay.

Data set [2] has as its target T1, Glucocorticoid receptor.
Data set [3] concerns the target T1, Glucocorticoid receptor. The source holds these as a separate data set.
Description: Agonist activity at glucocorticoid receptor in human foreskin fibroblasts assessed as inhibition of IL-1-induced IL-6 production by trans-repression assay
Data set [4] in a line: Chemical stability of the compound in aqueous solution at pH 2. Format: physicochemical. To be noted: buffer.
Data set [5] has as its target T3, Mineralocorticoid receptor (Homo sapiens, UniProt P08235).
T3 sequence (P08235 whole entry): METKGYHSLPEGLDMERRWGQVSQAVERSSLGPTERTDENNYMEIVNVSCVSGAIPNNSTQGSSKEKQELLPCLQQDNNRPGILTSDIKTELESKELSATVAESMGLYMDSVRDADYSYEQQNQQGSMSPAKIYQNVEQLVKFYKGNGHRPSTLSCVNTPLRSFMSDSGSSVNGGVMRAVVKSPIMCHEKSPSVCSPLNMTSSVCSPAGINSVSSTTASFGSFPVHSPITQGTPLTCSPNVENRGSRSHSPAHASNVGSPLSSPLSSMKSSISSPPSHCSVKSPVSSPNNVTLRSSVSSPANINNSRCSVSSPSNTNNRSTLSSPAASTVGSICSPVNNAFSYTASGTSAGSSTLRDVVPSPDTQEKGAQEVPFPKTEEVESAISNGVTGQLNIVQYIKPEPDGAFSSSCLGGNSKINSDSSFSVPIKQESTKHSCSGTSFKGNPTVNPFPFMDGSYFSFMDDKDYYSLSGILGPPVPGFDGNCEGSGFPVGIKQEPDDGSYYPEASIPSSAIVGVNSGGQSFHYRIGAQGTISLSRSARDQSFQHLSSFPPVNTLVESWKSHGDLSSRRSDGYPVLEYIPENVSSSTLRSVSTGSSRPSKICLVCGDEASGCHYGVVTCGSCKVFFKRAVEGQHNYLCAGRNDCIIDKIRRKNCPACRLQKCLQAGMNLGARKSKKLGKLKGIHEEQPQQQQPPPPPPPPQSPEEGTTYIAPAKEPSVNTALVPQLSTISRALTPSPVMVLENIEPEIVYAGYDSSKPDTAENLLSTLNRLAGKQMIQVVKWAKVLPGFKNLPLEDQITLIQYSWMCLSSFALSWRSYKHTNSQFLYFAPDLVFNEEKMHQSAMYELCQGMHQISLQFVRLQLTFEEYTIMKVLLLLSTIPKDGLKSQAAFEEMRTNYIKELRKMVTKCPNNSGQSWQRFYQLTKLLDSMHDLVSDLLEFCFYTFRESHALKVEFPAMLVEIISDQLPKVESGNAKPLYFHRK
Put plainly: Displacement of TAMRA-labeled dexamethasone from mineralocorticoid receptor (unknown origin) by fluorescence polarization assay. For orientation: In fluorescence polarisation assays a small probe gives low polarisation when free and higher when bound to something large.

Data set [6] deals with T1, Glucocorticoid receptor. The source holds these as a separate data set.
Description: Transactivation of glucocorticoid receptor in human HeLa cells harboring MMTV promoter by luciferase reporter gene assay
For data set [7], the species on record is Homo sapiens. The experiment in a line: Selectivity ratio of IC50 for mineralocorticoid receptor (unknown origin) to IC50 for glucocorticoid receptor (unknown origin).
For data set [8], the species on record is Homo sapiens. The experiment in a line: Selectivity ratio of IC50 for progesterone receptor (unknown origin) to IC50 for glucocorticoid receptor (unknown origin).
Data set [9] in a line: Chemical stability of the compound in aqueous solution at pH 2 to 7.4 after 24 hrs. It is filed as physicochemical. To be noted: buffer, pH 2, 24 h.

By pIC50 is commonly meant the IC50 on a negative log10 scale, so that one unit is a factor of ten. A low value points to a high IC50. In general, pEC50 refers to the negative decadic logarithm of the EC50, by convention in mol/L. A high value points to a small EC50. As to `Cc1ccc(F)cc1C(C)(C)CC(O)(Cc1cc2cnccc2[nH]1)C1CC1` (stereo not drawn), at Glucocorticoid receptor [1], the Emax at 2 µM worked out at 11%. In addition, the pIC50 was under 5.70 at Progesterone receptor, 8.05 on Glucocorticoid receptor [2], 7.62 against Glucocorticoid receptor [3] and 5.81 in [5]. Moreover, the Stability entry in data set [4] is recorded as “Unstable”. In addition, the negative logarithm of the EC50 (pEC50) at Glucocorticoid receptor [6] was under 5.70.

For `COc1ccc(F)cc1C(C)(C)CC(O)(Cc1cc2ccncc2[nH]1)C1CCC1` (stereo not drawn), the negative logarithm of the IC50 (pIC50) is under 5.70 on Progesterone receptor, 7.77 against Glucocorticoid receptor [2], 6.59 at Glucocorticoid receptor [3] and under 5.70 in data set [5].

As for `CCC(C)(C)C(O)(Cc1cc2ccncc2[nH]1)CC(C)(C)c1cc(F)ccc1OC` (stereo not drawn), the Ratio IC50 in the data set filed under Homo sapiens [7] and in the data set filed under Homo sapiens [8] was over 100 each time. In addition, the negative logarithm of the IC50 (pIC50) is under 5.70 at Progesterone receptor, 7.89 on Glucocorticoid receptor [2], under 5.70 against Glucocorticoid receptor [3] and 5.72 in data set [5].

For the compound `COc1ccc(F)cc1C(C)(C)CC(O)(Cc1cc2ccncc2[nH]1)C(F)(F)F` (stereo not drawn), the pIC50 was under 5.70 on Progesterone receptor, 8.40 at Glucocorticoid receptor [2] and 8.00 against Glucocorticoid receptor [3].

Regarding `COc1ccc(F)cc1C(C)(C)CC(O)(Cc1cc2ccncc2[nH]1)C1CCCC1` (single isomer, unassigned), the negative-log IC50 (pIC50) was under 5.70 on Progesterone receptor, 7.59 against Glucocorticoid receptor [2], under 5.70 at Glucocorticoid receptor [3] and 5.96 in data set [5].

In the case of `COc1ccc(F)cc1C(C)(C)CC(O)(Cc1cc2cnccc2[nH]1)C1CC1` (stereo not drawn), the Emax at 2 µM on Glucocorticoid receptor [1] was 20%. Besides, the negative logarithm of the IC50 (pIC50) at Progesterone receptor is under 5.70; against Glucocorticoid receptor [2] it was 8.22; on Glucocorticoid receptor [3] it was 8.10; in data set [5], 5.74. Besides, the pEC50 on Glucocorticoid receptor [6] was 7.05.

Take `Cc1ccc(F)cc1C(C)(C)C[C@](O)(Cc1cc2cnccc2[nH]1)C(C)(C)C`: the negative logarithm of the IC50 (pIC50) on Progesterone receptor was under 5.70; at Glucocorticoid receptor [2] it was 5.89; in data set [5] it was 5.89.

For the compound `Cc1ccc(F)cc1C(C)(C)CC(O)(Cc1cc2cnccc2[nH]1)C(C)(C)C` (racemic), on Glucocorticoid receptor [1], the Emax at 2 µM came out at 1%. In addition, the pIC50 was 6.11 on Progesterone receptor, 8.30 at Glucocorticoid receptor [2], 7.46 against Glucocorticoid receptor [3] and 6.14 in [5]. The Stability entry in data set [9] and in data set [4] was “Stable” throughout. This compound also showed a negative logarithm of the EC50 (pEC50) at Glucocorticoid receptor [6] of under 5.70.

Turning to `COc1ccc(F)cc1C(C)(C)CC(O)(Cc1cc2cnccc2[nH]1)C(C)(C)C` (stereo not drawn), on Glucocorticoid receptor [1], the Emax at 2 µM is 10%. Moreover, the negative logarithm of the IC50 (pIC50) at Progesterone receptor is 6.10; on Glucocorticoid receptor [2], 8.40; at Glucocorticoid receptor [3], 8.05; in data set [5], 6.19. Moreover, the pEC50 on Glucocorticoid receptor [6] is under 5.70.

With `COc1ccc(F)cc1C(C)(C)CC(O)(Cc1cc2ccncc2[nH]1)C(C)C` (stereo not drawn), the Ratio IC50 in the data set filed under Homo sapiens [7] and in the data set listed under Homo sapiens [8] was over 100 throughout. Further, the pIC50 at Progesterone receptor is under 5.70; at Glucocorticoid receptor [2], 8.05; against Glucocorticoid receptor [3], 7.14; in [5], 6.00.

Turning to `COc1ccc(F)cc1C(C)(C)CC(O)(Cc1cc2ccncc2[nH]1)C1CC1` (stereo not drawn), the Ratio IC50 in the data set listed under Homo sapiens [7] and in the data set filed under Homo sapiens [8] was over 100 each time. Besides, the pIC50 is under 5.70 at Progesterone receptor, 7.82 at Glucocorticoid receptor [2], 7.33 on Glucocorticoid receptor [3] and under 5.70 in data set [5].

For `CCC(O)(Cc1cc2ccncc2[nH]1)CC(C)(C)c1cc(F)ccc1OC` (stereo not drawn), the negative logarithm of the IC50 (pIC50) on Progesterone receptor was under 5.70; against Glucocorticoid receptor [2], 7.29; against Glucocorticoid receptor [3] it was 6.66; in data set [5], under 5.70.

In the case of `COc1ccc(F)cc1C(C)(C)CC(O)(Cc1cc2ccncc2[nH]1)C(C)(C)C` (stereo not drawn), the Ratio IC50 in the data set filed under Homo sapiens [7] and in the data set listed under Homo sapiens [8] was over 100 each time. The negative logarithm of the IC50 (pIC50) on Progesterone receptor is 5.74; on Glucocorticoid receptor [2], 8.10; on Glucocorticoid receptor [3], 7.44; in [5] it was 5.74.

Take `COc1ccc(F)cc1C(C)(C)CC(C)(O)Cc1cc2ccncc2[nH]1` (stereo not drawn): the pIC50 on Progesterone receptor is under 5.70; against Glucocorticoid receptor [2], 6.64; against Glucocorticoid receptor [3], under 5.70; in data set [5] it was under 5.70.
